Molecular target: T1, crosslinked smooth muscle actomyosin (chicken gizzard smooth muscle myosin subfragment-1 crosslinked to cardiac or skeletal actin) (Gallus gallus, UniProt P10587)
T1 construct: chicken gizzard smooth muscle myosin subfragment-1; from tissue; host or cells: chicken gizzard
Assay: Lead optimization pyruvate kinase/horseradish peroxidase/pyruvate oxidase-coupled ATPase assay (compound dose response)
Assay type: biochemical
Conditions: read-out: IC50 Arithmetic Mean
How it was run: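 IC50 is the midpoint of a 4-parameter dose–response fit of Amplex Red fluorescence (480/615 nm). Buffer was 12 mM potassium PIPES pH 7.00 at 22 °C with 100 mM KCl, 2 mM MgCl2, 0.15 mM ATP and 2 mM phosphate, with PK/pyruvate oxidase/HRP coupling. Enzyme: smooth muscle myosin S1 crosslinked to cardiac or skeletal actin, dosed empirically by activity.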

| SMILES | IC50 [µM] |
| --- | --- |
| CCc1ccc(NC(=O)OCC2(C(=O)NCc3ccccc3Cl)CCN(C(=O)C(C)(CO)CO)CC2)cc1 [N-[(2-chlorophenyl)methyl](4-{[N-(4-ethylphenyl)carbamoyloxy]methyl}-1-[3-hydroxy-2-(hydroxymethyl)-2-methylpropanoyl](4-piperidyl))carboxamide] | 0.275 |
| CCc1ccc(NC(=O)OCC2(C(=O)NCc3ccccc3Cl)CCN(Cc3ccccc3)CC2)cc1 [N-[(2-chlorophenyl)methyl](4-{[N-(4-ethylphenyl)carbamoyloxy]methyl}-1-benzyl(4-piperidyl))carboxamide] | 14.4 |
| CCc1ccc(NC(=O)OCC2(C(=O)NCc3ccccc3Cl)CCN(C)CC2)cc1 [N-[(2-chlorophenyl)methyl](4-{[N-(4-ethylphenyl)carbamoyloxy]methyl}-1-methyl(4-piperidyl))carboxamide] | 4.93 |
| CCc1ccc(NC(=O)OCC2(C(=O)NCc3ccccc3Cl)CCN(C(=O)c3ccc(C(=O)c4ccccc4)cc3)CC2)cc1 [N-[(2-chlorophenyl)methyl](4-{[N-(4-ethylphenyl)carbamoyloxy]methyl}-1-{[4-(phenylcarbonyl)phenyl]carbonyl}(4-piperidyl))carboxamide] | 4.95 |
| Cc1ccc(NC(=O)OCC2(C(=O)NCc3ccccc3Cl)CCOCC2)cc1 [N-[(2-chlorophenyl)methyl](4-{[N-(4-methylphenyl)carbamoyloxy]methyl}(2H-3,4,5,6-tetrahydropyran-4-yl))carboxamide] | 0.697 |
| Cc1cccc(F)c1NC(=O)OCC1(C(=O)NCc2ccccc2Cl)CCOCC1 [N-[(2-chlorophenyl)methyl](4-{[N-(6-fluoro-2-methylphenyl)carbamoyloxy]methyl}(2H-3,4,5,6-tetrahydropyran-4-yl))carboxamide] | 14.2 |
| CCc1ccc(NC(=O)OCC2(C(=O)NCc3ccccc3Cl)CCCCC2)cc1 [N-[(2-chlorophenyl)methyl]({[N-(4-ethylphenyl)carbamoyloxy]methyl}cyclohexyl)carboxamide] | 0.238 |
| CCc1ccc(NC(=O)OCC2(C(=O)NCc3ccccc3Cl)CC2)cc1 [N-[(2-chlorophenyl)methyl]({[N-(4-ethylphenyl)carbamoyloxy]methyl}cyclopropyl)carboxamide] | 3.05 |
| CCc1ccc(NC(=O)NC(C)(C)C(=O)NCc2ccccc2Cl)cc1 [N-[(2-chlorophenyl)methyl]-2-{[(4-ethylphenyl)amino]carbonylamino}-2-methylpropanamide] | 13.6 |
| CCc1ccc(NC(=O)OCC(C)(C)C(=O)NCc2ccccc2Cl)cc1 [N-[(2-chlorophenyl)methyl]-3-[N-(4-ethylphenyl)carbamoyloxy]-2,2-dimethylpropanamide] | 2.51 |
| CCc1ccc(NC(=O)OCC(C)(NC(=O)CO)C(=O)NCc2ccccc2Cl)cc1 (centres unmarked) [N-[(2-chlorophenyl)methyl]-3-[N-(4-ethylphenyl)carbamoyloxy]-2-(2-hydroxyacetylamino)-2-methylpropanamide] | 9.18 |
| CCc1ccc(NC(=O)OCC(C)(NC(=O)OC)C(=O)NCc2ccccc2Cl)cc1 (centres unmarked) [N-[(2-chlorophenyl)methyl]-3-[N-(4-ethylphenyl)carbamoyloxy]-2-(methoxycarbonylamino)-2-methylpropanamide] | 4.09 |
| CCc1ccc(NC(=O)NCC(C)(C)C(=O)NCc2ccccc2Cl)cc1 [N-[(2-chlorophenyl)methyl]-3-{[(4-ethylphenyl)amino]carbonylamino}-2,2-dimethylpropanamide] | 8.82 |
| CCc1ccc(NC(=O)OCCC(C)(C)C(=O)NCc2ccccc2Cl)cc1 [N-[(2-chlorophenyl)methyl]-4-[N-(4-ethylphenyl)carbamoyloxy]-2,2-dimethylbutanamide] | 0.235 |
| CCc1ccc(NC(=O)OCCCC(=O)NCc2ccccc2Cl)cc1 [N-[(2-chlorophenyl)methyl]-4-[N-(4-ethylphenyl)carbamoyloxy]butanamide] | 3.43 |
| CCc1ccc(NC(=O)NCCC(C)(C)C(=O)NCc2ccccc2Cl)cc1 [N-[(2-chlorophenyl)methyl]-4-{[N-(4-ethylphenyl)carbamoyl]amino}-2,2-dimethylbutanamide] | 4.73 |
| CCc1ccc(NC(=O)CCC(C)(C)C(=O)NCc2ccccc2Cl)cc1 [N-[(2-chlorophenyl)methyl]-N′-(4-ethylphenyl)-2,2-dimethylpentane-1,5-diamide] | 18.5 |
| O=C(Nc1ccc(C(F)(F)F)cc1)OCC1(C(=O)NCc2ccccc2Cl)CCN(C(=O)CO)CC1 [N-[(2-chlorophenyl)methyl][1-(2-hydroxyacetyl)-4-({N-[4-(trifluoromethyl)phenyl]carbamoyloxy}methyl)(4-piperidyl)]carboxamide] | 0.456 |
| CCc1ccc(NC(=O)NCC2CCCN2C(=O)NCc2ccccc2Cl)cc1 (centres unmarked) [N-[(2-chlorophenyl)methyl][2-({[(4-ethylphenyl)amino]carbonylamino}methyl)pyrrolidinyl]carboxamide] | 2.62 |

| SMILES | IC50 [µM] |
| --- | --- |
| Cc1nc(-c2ccc(NC(=O)OCC3(C(=O)NCc4ccccc4Cl)CCOCC3)cc2)cs1 [N-[(2-chlorophenyl)methyl][4-({N-[4-(2-methyl(1,3-thiazol-4-yl))phenyl]carbamoyloxy}methyl)(2H-3,4,5,6-tetrahydropyran-4-yl)]carboxamide] | 3.92 |
| CC(O)c1ccc(NC(=O)OCC2(C(=O)NCc3ccccc3Cl)CCOCC2)cc1 (centres unmarked) [N-[(2-chlorophenyl)methyl][4-({N-[4-(hydroxyethyl)phenyl]carbamoyloxy}methyl)(2H-3,4,5,6-tetrahydropyran-4-yl)]carboxamide] | 5.23 |
| CC(C)c1ccc(NC(=O)OCC2(C(=O)NCc3ccccc3Cl)CCOCC2)cc1 [N-[(2-chlorophenyl)methyl][4-({N-[4-(methylethyl)phenyl]carbamoyloxy}methyl)(2H-3,4,5,6-tetrahydropyran-4-yl)]carboxamide] | 0.498 |
| O=C(Nc1ccc(C(F)(F)F)cc1)OCC1(C(=O)NCc2ccccc2Cl)CCOCC1 [N-[(2-chlorophenyl)methyl][4-({N-[4-(trifluoromethyl)phenyl]carbamoyloxy}methyl)(2H-3,4,5,6-tetrahydropyran-4-yl)]carboxamide] | 1.14 |
| O=C(Nc1ccc(C(F)(F)F)cc1)OCC1(C(=O)NCc2ccccc2Cl)CCNCC1 [N-[(2-chlorophenyl)methyl][4-({N-[4-(trifluoromethyl)phenyl]carbamoyloxy}methyl)(4-piperidyl)]carboxamide] | 5.94 |
| Cc1ccc(NC(=O)OCC2(C(=O)NCc3ccccc3Cl)CCOCC2)cc1C(F)(F)F [N-[(2-chlorophenyl)methyl][4-({N-[4-methyl-3-(trifluoromethyl)phenyl]carbamoyloxy}methyl)(2H-3,4,5,6-tetrahydropyran-4-yl)]carboxamide] | 12.1 |
| CCc1ccc(NC(=O)N(C)CC2(C(=O)NCc3ccccc3Cl)CCN(C(=O)CO)CC2)cc1 [N-[(2-chlorophenyl)methyl][4-({[(4-ethylphenyl)amino]-N-methylcarbonylamino}methyl)-1-(2-hydroxyacetyl)(4-piperidyl)]carboxamide] | 18.7 |
| CCc1ccc(NC(=O)NCC2(C(=O)NCc3ccccc3Cl)CCNCC2)cc1 [N-[(2-chlorophenyl)methyl][4-({[(4-ethylphenyl)amino]carbonylamino}methyl)(4-piperidyl)]carboxamide] | 18.2 |
| CCc1ccc(NC(=O)NCC2(C(=O)NCc3ccccc3Cl)CCN(C(=O)CO)CC2)cc1 [N-[(2-chlorophenyl)methyl][4-({[(4-ethylphenyl)amino]carbonylamino}methyl)-1-(2-hydroxyacetyl)(4-piperidyl)]carboxamide] | 1.88 |
| CCc1ccc(NC(=O)OC2CCCN(C(=O)NCc3ccccc3Cl)C2)cc1 (centres unmarked) [N-[(2-chlorophenyl)methyl]{3-[N-(4-ethylphenyl)carbamoyloxy]piperidyl}carboxamide] | 2.26 |
| O=C(Nc1ccc2c(c1)CCC2)OCC1(C(=O)NCc2ccccc2Cl)CCOCC1 [N-[(2-chlorophenyl)methyl]{4-[(N-indan-5-ylcarbamoyloxy)methyl](2H-3,4,5,6-tetrahydropyran-4-yl)}carboxamide] | 0.361 |
| O=C(Nc1ccccc1)OCC1(C(=O)NCc2ccccc2Cl)CCOCC1 [N-[(2-chlorophenyl)methyl]{4-[(N-phenylcarbamoyloxy)methyl](2H-3,4,5,6-tetrahydropyran-4-yl)}carboxamide] | 15.2 |
| CCc1ccc(CC(=O)NCC2(C(=O)NCc3ccccc3Cl)CC2)cc1 [N-[({N-[(2-chlorophenyl)methyl]carbamoyl}cyclopropyl)methyl]-2-(4-ethylphenyl)acetamide] | 18.2 |
| CCc1ccc(NC(=O)NCC2(C(=O)NCc3ccccc3Cl)CC2)cc1 [N-[({N-[(2-chlorophenyl)methyl]carbamoyl}cyclopropyl)methyl][(4-ethylphenyl)amino]carboxamide] | 5.23 |
| CCc1ccc(NC(=O)OCCN(C)C(=O)C(O)Cc2ccccc2C(F)(F)F)cc1 (centres unmarked) [N-{2-[N-(4-ethylphenyl)carbamoyloxy]ethyl}-2-hydroxy-N-methyl-3-[2-(trifluoromethyl)phenyl]propanamide] | 17.5 |
| CCc1ccc(NC(=O)OCCN(C)C(=O)CCc2ccccc2C(F)(F)F)cc1 [N-{2-[N-(4-ethylphenyl)carbamoyloxy]ethyl}-N-methyl-3-[2-(trifluoromethyl)phenyl]propanamide] | 1.21 |
| CCc1ccc(NC(=O)OCCNC(C)=O)cc1 [N-{2-[N-(4-ethylphenyl)carbamoyloxy]ethyl}acetamide] | 17.4 |
| CCc1ccc(NC(=O)OC[C@H](C)N(C)C(=O)NCc2ccccc2Cl)cc1 [N-{(1S)-2-[N-(4-ethylphenyl)carbamoyloxy]-isopropyl}{[(2-chlorophenyl)methyl]amino}-N-methylcarboxamide] | 0.148 |
| CCc1ccc(NC(=O)OC[C@H](C)NC(=O)NCc2ccccc2Cl)cc1 [N-{(1S)-2-[N-(4-ethylphenyl)carbamoyloxy]-isopropyl}{[(2-chlorophenyl)methyl]amino}carboxamide] | 1.63 |

From patent publication US8071625B2, “Certain chemical entities, compositions, and methods” (Cytokinetics, Inc., priority 2006, dated 2011)
